This assay has as its target T1, memapsin 2 (Homo sapiens, UniProt P56817).
T1 construct: pET-11 vector-derived residues 1-15 of promemapsin 2-T1 (N, cleaved yes); made in house; host or cells: E. coli
The assay can be described thus: Inhibition of memapsin 2 proteolytic activity, fluorogenic substrate FS-2. In kind it is biochemical. The note with it: for Vi/Vo: ratio of initial cleavage velocities of FS-2 with/without compound, enzyme and inhibitor concentrations equal (e.g., about 80 nM, 100 nM). Put shortly:
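Spontaneously activated memapsin 2 (80 nM final) equilibrated with inhibitor (about 10 nM–10 μM) in 0.1 M NaOAc pH 4.0 with 10% DMSO for 20 min at 37 °C, with fluorogenic substrate FS-2. Ki converted from Ki apparent using substrate concentration and Km.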

[1] abbreviates: memapsin 2, apparent Ki in presence of substrate FS-2, read-out: Ki app.
The mark [2] stands for this setting: memapsin 2, independent of substrate, converted from Ki apparent, read-out: Ki.
[3] abbreviates: Ki, [I] < 100, memapsin 2, [I] < 100 (nM).
Setting [4] is: memapsin 2, apparent Ki in presence of substrate FS-2.
Where [5] appears, read: memapsin 2, independent of substrate, converted from Ki apparent.

The record followed here is patent US20040121947A1, “Compounds which inhibit beta-secretase activity and methods of use thereof” (Oklahoma Medical Research Foundation, priority 2000, published 2004).

Read-outs that look alike come from different tables or passages of the source.

T1 sequence (P56817 41-454 limits assumed): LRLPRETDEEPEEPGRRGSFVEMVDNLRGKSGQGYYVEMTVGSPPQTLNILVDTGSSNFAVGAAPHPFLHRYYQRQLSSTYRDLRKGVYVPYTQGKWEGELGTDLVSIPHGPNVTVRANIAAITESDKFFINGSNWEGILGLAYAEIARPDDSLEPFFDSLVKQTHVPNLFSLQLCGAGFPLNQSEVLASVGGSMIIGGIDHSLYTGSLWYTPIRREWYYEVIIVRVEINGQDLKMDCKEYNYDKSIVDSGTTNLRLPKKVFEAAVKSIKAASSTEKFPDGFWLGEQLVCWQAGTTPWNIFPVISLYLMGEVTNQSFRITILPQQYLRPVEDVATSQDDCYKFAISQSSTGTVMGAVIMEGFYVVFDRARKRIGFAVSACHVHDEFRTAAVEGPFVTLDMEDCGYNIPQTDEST

Consider `CC(C)C[C@H](NC(=O)[C@@H]1CC(=O)NC/C=C\CCOC(=O)N[C@@H](C(C)C)C(=O)N1)[C@@H](O)C[C@@H](C)C(=O)N[C@H](C(=O)NCc1ccccc1)C(C)C` [MMI-152], for which the Vi/Vo amounted to 0.47. For the same compound, the Ki under setting [1] turned out to be 20.6 nM. For the same compound, the Ki under setting [2] is 12.8 nM.

With `CC(C)C[C@H](NC(=O)[C@@H]1CC(=O)NCCCCCOC(=O)N[C@@H](C(C)C)C(=O)N1)[C@@H](O)C[C@@H](C)C(=O)N[C@H](C(=O)NCc1ccccc1)C(C)C` [MMI-153], the Vi/Vo came out at 0.68.

In the case of `CSCC[C@H](NC(=O)[C@@H](NC(=O)OC(C)(C)C)C(C)C)C(=O)N[C@@H](CC(C)C)[C@@H](O)C[C@@H](C)C(=O)N[C@@H](C(C)C)C1CCCO1` (stereo partly shown) [MMI-154], the Vi/Vo was found to be 0.1.

On to `CSCC[C@H](NC(=O)[C@@H](NC(=O)OC(C)(C)C)C(C)C)C(=O)N[C@@H](CO)[C@@H](O)C[C@@H](C)C(=O)N[C@H](C(=O)NCc1ccccc1)C(C)C` [MMI-155], for which the Vi/Vo is listed as 0.08. Further, the Ki under setting [1] came out at 2.06 nM. In addition, under setting [2], the Ki was 1.28 nM.

For `CSCC[C@H](NC(=O)[C@H](CC(C)C)NC(=O)OC(C)(C)C)C(=O)N[C@@H](CC(C)C)[C@@H](O)C[C@@H](C)C(=O)N[C@@H](CC(C)C)C(=O)NC(C)C` [MMI-158], the Vi/Vo was determined as 0.08. Further, the Ki under setting [1] was found to be 0.524 nM. For the same compound, the Ki under setting [2] came to 0.33 nM.

Turning to `CCCCNC(=O)[C@@H](NC(=O)[C@H](C)C[C@H](O)[C@H](CC(C)C)NC(=O)[C@H](CCSC)NC(=O)[C@H](CC(C)C)NC(=O)OC(C)(C)C)C(C)C` [MMI-159], the Vi/Vo is 0.07. Besides, the Ki under setting [1] was determined as 0.8 nM. The Ki under setting [2] was determined as 0.5 nM.

For the compound `CCCCNC(=O)[C@H](CC(C)C)NC(=O)[C@H](C)C[C@H](O)[C@H](CC(C)C)NC(=O)[C@H](CCSC)NC(=O)[C@H](CC(C)C)NC(=O)OC(C)(C)C` [MMI-160], the Vi/Vo worked out at 0.19. The Ki under setting [1] is 4.15 nM. Moreover, the Ki under setting [2] came to 2.59 nM.

In the case of `CSCC[C@H](NC(=O)[C@H](CC(C)C)NC(=O)OC(C)(C)C)C(=O)N[C@@H](CC(C)C)[C@@H](O)C[C@@H](C)C(=O)N[C@H](C(=O)NCc1ccco1)C(C)C` [MMI-161], the Vi/Vo amounted to 0.06. For the same compound, under setting [1], the Ki worked out at 0.68 nM. Further, the Ki under setting [2] was 0.43 nM.

On to `CSCC[C@H](NC(=O)[C@@H](NC(=O)OC(C)(C)C)C(C)C)C(=O)N[C@@H](CC(C)C)[C@@H](O)C[C@@H](C)NC(=O)[C@H](NC(=O)OCc1ccccc1)C(C)C` [MMI-162], for which the Vi/Vo is 0.98.

`CSCC[C@H](NC(=O)[C@@H](NC(=O)OC(C)(C)C)C(C)C)C(=O)N[C@@H](CC(C)C)[C@@H](O)C[C@@H](C)NC(=O)[C@@H](NC(=O)OCc1ccccc1)C(C)C` [MMI-163]: the Vi/Vo turned out to be 0.57.

In the case of `CSCC[C@H](C[C@H](O)[C@H](CC(C)C)NC(=O)[C@H](CCSC)NC(=O)[C@H](CC(C)C)NC(=O)OC(C)(C)C)C(=O)N[C@H](C(=O)NCc1ccccc1)C(C)C` [MMI-164], the Vi/Vo amounted to 0.29. For the same compound, the Ki under setting [1] was found to be 12.8 nM. The Ki under setting [2] was 7.98 nM.

Turning to `CSCC[C@H](NC(=O)OCn1nc(C)cc1C)C(=O)N[C@@H](CC(C)C)[C@@H](O)C[C@@H](C)C(=O)N[C@@H](CC(C)C)C(=O)NCC(C)C` [MMI-166], the Vi/Vo was determined as 0.76. Under setting [1], the Ki amounted to 108 nM. Moreover, the Ki under setting [2] amounted to 67.4 nM.

`CSCC[C@H](NC(=O)[C@@H](NC(=O)OC(C)(C)C)C(C)C)C(=O)N[C@@H](CC(C)C)[C@@H](O)C[C@H](C)NC(=O)[C@@H](NC(=O)OCc1ccccc1)C(C)C` [MMI-168]: the Vi/Vo turned out to be 0.75.

As to `CSCC[C@H](NC(=O)[C@@H](NC(=O)OC(C)(C)C)C(C)C)C(=O)N[C@@H](CC(C)C)[C@@H](O)C[C@H](C)NC(=O)[C@H](NC(=O)OCc1ccccc1)C(C)C` [MMI-169], the Vi/Vo worked out at 1.1.

As to `CSCC[C@H](NC(=O)OCn1nc(C)cc1C)C(=O)N[C@@H](CC1CCCC1)[C@@H](O)C[C@@H](C)C(=O)N[C@@H](CC(C)C)C(=O)NCC(C)C` [MMI-170], the Vi/Vo is reported as 1.08.

Consider `CCCCNC(=O)[C@@H](NC(=O)[C@H](C)C[C@H](O)[C@H](CC1CCCC1)NC(=O)[C@H](CCSC)NC(=O)OCn1nc(C)cc1C)C(C)C` [MMI-172], for which the Vi/Vo came out at 1.05. Also, the Ki under setting [1] is 447 nM. In addition, the Ki under setting [2] was 279 nM.

In the case of `CSCC[C@H](NC(=O)OCCn1nc(C(C)(C)C)cc1C(C)(C)C)C(=O)N[C@@H](CC(C)C)[C@@H](O)C[C@@H](C)C(=O)N[C@@H](CC(C)C)C(=O)NCC(C)C` [MMI-177], the Vi/Vo worked out at 1.16.

As for `CCCCNC(=O)[C@@H](NC(=O)[C@H](C)C[C@H](O)[C@H](CC1CCC1)NC(=O)[C@H](CCSC)NC(=O)OCn1nc(C)cc1C)C(C)C` [MMI-178], the Vi/Vo was determined as 0.69. The Ki under setting [1] worked out at 24.5 nM. Moreover, the Ki under setting [2] was 15.3 nM.

Consider `CSCC[C@H](NC(=O)[C@@H](NC(=O)OC(C)(C)C)C(C)C)C(=O)N[C@@H](CC(C)C)[C@@H](O)C[C@@H](C)C(=O)N[C@@H](CC(C)C)C(=O)N1CCOCC1` [MMI-183], for which the Vi/Vo is recorded as 0.64. The Ki under setting [3] turned out to be 108 nM. Besides, the Ki under setting [1] came out at 6740 nM. Also, the Ki under setting [2] is 4210 nM.

On to `CSCC[C@H](NC(=O)[C@@H](NC(=O)OC(C)(C)C)C(C)C)C(=O)N[C@@H](CC(C)C)[C@@H](O)C[C@@H](C)C(=O)N[C@@H](CC(C)C)C(=O)N1CCN(C)CC1` [MMI-184], for which the Vi/Vo was found to be 0.6. The Ki under setting [3] was found to be 64 nM. Under setting [1], the Ki came out at 194 nM. Besides, the Ki under setting [2] turned out to be 121 nM.

For the compound `CSCC[C@H](NC(=O)OCc1ccnn1C)C(=O)N[C@@H](CC(C)C)[C@@H](O)C[C@@H](C)C(=O)N[C@H](C(=O)NCC(C)C)C(C)C` [MMI-186], the Ki is, setting by setting: under setting [1], 217 nM; under setting [2], 136 nM.

For `CSCC[C@H](NC(=O)[C@@H](NC(=O)OC(C)(C)C)C(C)C)C(=O)N[C@@H](CC(C)C)[C@@H](O)C[C@]1(C)CCN([C@H](C(=O)NCC(C)C)C(C)C)C1=O` [MMI-187], the Ki app entry under setting [4] is “N.I”. Also, the Ki entry under setting [5] is recorded as “N.I”.

For `CSCC[C@H](NC(=O)OCc1ncc(C)n1C)C(=O)N[C@@H](CC(C)C)[C@@H](O)C[C@@H](C)C(=O)N[C@H](C(=O)NCC(C)C)C(C)C` [MMI-188], the Ki came to 230 nM under setting [1] and 144 nM under setting [2].

For `CSCC[C@H](NC(=O)OCc1c(C)ncn1C)C(=O)N[C@@H](CC(C)C)[C@@H](O)C[C@@H](C)C(=O)N[C@H](C(=O)NCC(C)C)C(C)C` [MMI-189], the Ki runs as follows: under setting [1], 358 nM; under setting [2], 224 nM.

For the compound `COCOCC[C@H](NC(=O)[C@H](CC(C)C)NC(=O)OC(C)(C)C)C(=O)N[C@@H](CC(C)C)[C@@H](O)C[C@@H](C)C(=O)N[C@@H](CC(C)C)C(=O)NC(C)C` [MMI-190], the Ki under setting [1] was 29.1 nM and the Ki under setting [2] was 18.2 nM.

Consider `CSCC[C@H](NC(=O)[C@@H](NC(=O)OC(C)(C)C)C(C)C)C(=O)N[C@@H](CC(C)C)[C@@H](O)C[C@]1(C)CCN([C@@H](CC(C)C)C(=O)NCC(C)C)C1=O` [MMI-191], for which the Ki app entry under setting [4] was “N.I”. Moreover, the Ki entry under setting [5] was “N.I”.

Turning to `CSCC[C@H](NC(=O)[C@@H](NC(=O)OC(C)(C)C)C(C)C)C(=O)N[C@@H](CC(C)C)[C@@H](O)C[C@]1(C)CCN([C@H](C(=O)N2CCN(C)CC2)C(C)C)C1=O` [MMI-192], the Ki under setting [1] is 374 nM and the Ki under setting [2] is 234 nM.

Take `CSCC[C@H](NC(=O)OCc1cc(C)nn1C)C(=O)N[C@@H](CC(C)C)[C@@H](O)C[C@@H](C)C(=O)N[C@H](C(=O)NCC(C)C)C(C)C` [MMI-193]: the Ki runs as follows: under setting [1], 288 nM; under setting [2], 180 nM.

As for `CSCC[C@H](NC(=O)CCn1nc(C)cc1C)C(=O)N[C@@H](CC(C)C)[C@@H](O)C[C@@H](C)C(=O)N[C@H](C(=O)NCC(C)C)C(C)C` [MMI-194], the Ki under setting [1] was 62.3 nM and the Ki under setting [2] came out at 38.9 nM.

Consider `CSCC[C@H](NC(=O)C(C)Cn1nc(C)cc1C)C(=O)N[C@@H](CC(C)C)[C@@H](O)C[C@@H](C)C(=O)N[C@H](C(=O)NCC(C)C)C(C)C` (stereo partly shown) [MMI-195], for which the Ki came to 451 nM under setting [1] and 282 nM under setting [2].

Consider `CSCC[C@H](NC(=O)[C@@H](NC(=O)OC(C)(C)C)[C@H](C)O)C(=O)N[C@@H](CC(C)C)[C@@H](O)C[C@@H](C)C(=O)N[C@@H](CC(C)C)C(=O)NC(C)C` [MMI-197], for which the Ki reads like this: under setting [1], 94.5 nM; under setting [2], 59.1 nM.

Turning to `CSCC[C@H](NC(=O)[C@H](C(C)C)N1CCCNC1=O)C(=O)N[C@@H](CC(C)C)[C@@H](O)C[C@@H](C)C(=O)N[C@@H](CC(C)C)C(=O)NCC(C)C` [MMI-198], the Ki runs as follows: under setting [1], 756 nM; under setting [2], 473 nM.

With `COc1cccc(C(=O)N[C@@H](CSC)C(=O)N[C@@H](CC(C)C)[C@@H](O)C[C@@H](C)C(=O)N[C@@H](CC(C)C)C(=O)NC(C)C)c1OC` [MMI-199], the Ki was 190 nM under setting [3], 963 nM under setting [1] and 602 nM under setting [2].

`CSCC[C@H](NC(=O)c1cccc(O)c1O)C(=O)N[C@@H](CC(C)C)[C@@H](O)C[C@@H](C)C(=O)N[C@@H](CC(C)C)C(=O)NC(C)C` [MMI-200]: the Ki by setting is: under setting [1], 1530 nM; under setting [2], 956 nM.

With `CSCC[C@H](C[C@H](O)[C@H](Cc1ccccc1)NC(=O)[C@H](CCSC)NC(=O)[C@@H](NC(=O)OC(C)(C)C)C(C)C)C(=O)N[C@H](C(=O)NCc1ccccc1)C(C)C` [MMI-201], the Ki was 58 nM under setting [1] and 36.2 nM under setting [2].

For `CSCC[C@H](NC(=O)[C@@H](NC(=O)OC(C)(C)C)C(C)C)C(=O)N[C@@H](CC(C)C)[C@@H](O)C[C@H](C(=O)N[C@H](C(=O)NCc1ccccc1)C(C)C)C(C)C` [MMI-202], the Ki runs as follows: under setting [1], 688 nM; under setting [2], 430 nM.
